According to patent US20060292099A1, “Treatment of eye disorders with sirtuin modulators” (priority 2005, published 2006):
Several values for one entry are separate records, joined by “and”; a condition that tells them apart may be missing. Identical values can stand only once. Like-named read-outs stand apart in the source and are kept apart here.

What was measured:
[1] = system: retinal ganglion cells (RGCs); assay: Retinal ganglion cell (RGC) counts in EAE optic neuritis model, resveratrol intravitreal; assay type: in vivo, SJL/J mice; conditions: for RGC numbers: EAE eyes with optic neuritis, 0.8 μl intravitreal days 0, 3, 7, 11, day 14
Method: (§1) The experimental design is diagrammed in FIG. 21.
Three test doses were diluted:
(§2) Retinas were diessected and whole-mounted for fluorescent microscopy. […] Optic nerves were dissected and processed for histology. […] RGCs were compared between PBS-treated and resveratrol-treated eyes with optic neuritis to determine whether resveratrol prevents loss of neurons.

[2] = system: EAE mice with optic neuritis; assay: Clinical EAE score and incidence of optic neuritis, resveratrol intravitreal; assay type: in vivo, SJL/J mice; conditions: for Peak EAE Score For Individual Mice: five point scale
From the text: as §1
Mice were scored daily for clinical EAE on a five point scale: no disease=0; partial tail paralysis=0.5; tail paralysis or waddling gait=1.0; partial tail paralysis and waddling gait=1.5; tail paralysis and waddling gait=2.0; partial limb paralysis=2.5; paralysis of one limb=3.0; paralysis of one limb and partial paralysis of another=3.5; paralysis of two limbs=4.0; moribund state=4.5; death=5.0.
as §2

[3] = Measured resveratrol concentration in Captisol solutions and reconstitution of lyophilized product; assay type: physicochemical
Method: Lyophilized vials containing 10% Captisol control vehicle were also manufactured. […] Lyophilized vials containing 40% Captisol control vehicle were also manufactured.
The filtered solutions were dispensed into vials (1.0 mL solution into 3 mL vial, Wheaton #223684), and lyophilized. At the end of the lyophilization cycle, the vials were sealed under vacuum and a cap crimped over the septa.
The lyophilized resveratrol product was an off-white cake. The material reconstituted in ˜20 seconds after the addition of 1.0 mL water. […] The lyophilized control vehicle product was a white cake. The material reconstituted in ˜20 seconds after the addition of 1.0 mL water. The reconstituted control vehicle was clear, with no visible particulates, and having a pH of 5.82.
The solution was stirred for 35 minutes, followed by sonication for 1 hour. The solution was stirred for an additional 50 minutes, followed by sonication for an additional hour. At this point, solid material was still present in the sample. An aliquot was removed for analysis. […] Because the solution appeared cloudy at this time, three portions were separated to try alternate mixing methods. Approximately 200 mL was transferred to a 500 mL volumetric flask and was sonicated for 45 min, approximately 300 mL was vigorously mixed with an overhead mixer for 90 minutes, and approximately 100 mL was homogenized for 25 minutes. None of the three portions appeared clear. […] The portions were combined and were stirred at ambient temperature overnight protected from light. The following morning, using an aseptic technique in the laminar flow hood, the solution was sterile filtered via a Nalgene 90 mm filter unit (Cat# 167-0020; […]).

[4] = system: EAE mice with optic neuritis; assay: Incidence of optic neuritis (inflammatory cell infiltration of optic nerve) and clinical EAE, nicotinamide riboside; assay type: in vivo, SJL/J mice
Method: (§3) Study outline: The neuroprotective effects of nicotinamide riboside were examined in EAE mice with optic neuritis. […] To induce EAE, mice were immunized several days later with 300 μg PLP emulsified in complete Freund's adjuvant (CFA), and control mice (without EAE) were mock-immunized with phosphate buffered saline (PBS) in CFA. All mice received 200 ng intraperitoneal pertussis toxin (PT) on the day of immunization (day 0) and again on day 2.
(§4) Eyes were treated with nicotinamide riboside by intravitreal (ivt) injections with a volume of 0.8 μl/injection of a stock solution of either 0.1 M or 0.4 M nicotinamide riboside in PBS (Groups 2, 4 and 5). […] Treament with nicotinamide riboside, as well as PBS control injections, were given ivt on days 0, 4, 7 and 11. Mice were scored daily for clinical EAE, and were sacrificed on day 14 by overdose with ketamine and xylazine.
(§5) Retinas were dissected and whole-mounted for fluorescent microscopy. RGC numbers were quantified by counting FG-labeled cells in 12 standardized fields in each retina. Optic nerves were dissected and processed for histology. Cut sections stained by H & E were evaluated for the presence of inflammatory cells to determine acute optic neuritis. RGCs were compared between PBS-treated and nicotinamide riboside-treated eyes with optic neuritis to determine whether nicotinamide riboside prevents loss of neurons.

[5] = system: retinal ganglion cells (RGCs)
Method: as §3, §4, §5

retinal ganglion cells = conditions: animals, recent study (glaucoma background); cited from earlier work
[6] = optic nerve, acute optic neuritis in EAE

**Q.** What does the source list for Oc1ccc(/C=C/c2cc(O)cc(O)c2)cc1 [resveratrol, 3,5,4′-Trihydroxy-trans-stilbene]?
**A.** RGC numbers ([1]; 38 μM resveratrol): 452±136 RGCs; RGC numbers ([1]; 77 μM resveratrol): 585±198 RGCs; RGC numbers ([1]; 600 μM resveratrol): 644±148 RGCs; Toxicity to RGCs ([1]; mouse, in vivo): not toxic; RGC numbers vs control eyes ([1]; non-EAE eyes treated with resveratrol vs control eyes): no difference; Peak EAE Score For Individual Mice ([2]; Control (non-EAE) mice, 38 μM resveratrol intravitreal): 0; Peak EAE Score For Individual Mice ([2]; Control (non-EAE) mice, 600 μM resveratrol intravitreal): 0; Peak EAE Score For Individual Mice ([2]; EAE mice, 38 μM resveratrol intravitreal): 1.5 and 3 (2×) and 0 and 5 and 2.5 and 1 (2×); Peak EAE Score For Individual Mice ([2]; EAE mice, 77 μM resveratrol intravitreal): 2 (4×) and 2.5 (3×) and 0 and 3.5 and 5 and 1.5; Peak EAE Score For Individual Mice ([2]; EAE mice, 600 μM resveratrol intravitreal): 2.5 and 2 (2×) and 5 and 4.5 and 1.5 and 0.5; Inflammatory cell infiltration [2, 6]: does not prevent; Incidence of optic neuritis and clinical EAE vs controls ([2]; resveratrol treated mice vs controls): did not differ; concentration of resveratrol in solution ([3]; 10% Captisol lyophilisate reconstituted with 1.0 mL water, pH 5.91): 14400 µM; concentration of resveratrol in solution ([3]; 10% Captisol, after 0.20 μm filtration, pH 4.83): 14900 µM; concentration of resveratrol in solution ([3]; 10% Captisol, mixed 1 hour at ambient temperature, initial solution, pH 5.02 (target 20 mM)): 15400 µM; concentration of resveratrol in solution (HPLC) ([3]; 40% Captisol, after stirring and sonication, solid still present, pH 4.76 (target 175 mM)): 55000 µM; concentration of resveratrol in solution ([3]; 40% Captisol, portion homogenized for 25 minutes): 74000 µM; concentration of resveratrol in solution ([3]; 40% Captisol, stirred overnight at ambient temperature, sterile filtered): 168000 µM

**Q.** For NC(=O)c1ccc[n+]([C@@H]2O[C@H](CO)[C@@H](O)[C@H]2O)c1 [nicotinamide riboside], which “Incidence of optic neuritis and clinical EAE vs controls” value ([4]; nicotinamide riboside treated mice vs controls) is on record?
**A.** did not differ

**Q.** And the Inflammatory cell infiltration [4, 6]?
**A.** does not prevent

**Q.** And the “Toxicity to RGCs” value ([5]; mouse, in vivo)?
**A.** not toxic

**Q.** What about the “RGC numbers vs control eyes” value ([5]; non-EAE eyes treated with nicotinamide riboside (Group 2) vs control eyes (Group 1)) of the same compound?
**A.** no difference

**Q.** With N=C(N)NN [aminoguanidine] as the compound, how does the “loss of retinal ganglion cells” value (retinal ganglion cells) read?
**A.** reduction in the loss of retinal ganglion cells
